Data set [1] concerns the target T1, human ETA receptors (Homo sapiens, UniProt P25101).
T1 construct: expressed in transfected cells; host or cells: Ltk- cells (mouse fibroblast, thymidine kinase deficient)
T1 sequence (P25101 21-427): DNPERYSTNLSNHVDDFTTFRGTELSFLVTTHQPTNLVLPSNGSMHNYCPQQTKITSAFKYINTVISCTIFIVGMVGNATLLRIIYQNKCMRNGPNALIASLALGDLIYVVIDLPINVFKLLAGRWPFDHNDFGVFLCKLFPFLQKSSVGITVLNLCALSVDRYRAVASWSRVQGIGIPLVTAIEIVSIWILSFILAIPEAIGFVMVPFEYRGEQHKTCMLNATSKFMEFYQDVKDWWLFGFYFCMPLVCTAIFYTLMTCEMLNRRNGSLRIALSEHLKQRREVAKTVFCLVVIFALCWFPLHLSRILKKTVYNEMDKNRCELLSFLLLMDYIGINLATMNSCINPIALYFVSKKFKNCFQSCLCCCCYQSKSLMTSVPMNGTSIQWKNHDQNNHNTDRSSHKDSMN
Description: [125I]ET-1 binding to recombinant human ETA receptors (Ltk- cell membranes). The note with it: for IC50: Table 1 comparison with known endothelin antagonists, read-out: Receptor Inhibition, Human ETA; for ETB/ETA selectivity ratio: human ETB / human ETA receptor inhibition.

For data set [2], the target named is T2, human ETB receptors (Homo sapiens, UniProt P24530).
T2 construct: expressed in transfected cells; host or cells: CHO cells
T2 sequence (P24530 27-442): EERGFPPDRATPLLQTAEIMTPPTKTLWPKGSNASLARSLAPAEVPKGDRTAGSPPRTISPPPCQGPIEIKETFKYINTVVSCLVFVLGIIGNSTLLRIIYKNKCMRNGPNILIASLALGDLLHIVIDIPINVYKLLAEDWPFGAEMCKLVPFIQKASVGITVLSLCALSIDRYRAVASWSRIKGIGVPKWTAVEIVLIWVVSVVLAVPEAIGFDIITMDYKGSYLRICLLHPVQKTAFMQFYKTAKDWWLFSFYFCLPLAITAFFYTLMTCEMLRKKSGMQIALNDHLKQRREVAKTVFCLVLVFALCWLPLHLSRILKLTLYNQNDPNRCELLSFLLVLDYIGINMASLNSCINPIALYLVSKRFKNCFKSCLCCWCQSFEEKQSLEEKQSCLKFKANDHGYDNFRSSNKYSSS
Description: [125I]ET-3 binding to recombinant human ETB receptors (CHO cell membranes). The note with it: Table 1 comparison with known endothelin antagonists; read-out: Receptor Inhibition, Human ETB.

A short description of data set [3]: clinical. The note with it: human, plasma, oral, 2 mg.

What is called AUC(0-t) is exposure summed from dosing to a finite time, without extrapolation to infinity. For orientation: Cmax means the maximum level reached in the sampled fluid or tissue.

With `COc1cc(OC)nc(O[C@H](C(=O)O)C(OC)(c2ccccc2)c2ccccc2)n1` [Darusentan], in data set [1], the IC50 was found to be 1.4 nM and the ETB/ETA selectivity ratio was 131. Moreover, the IC50 in data set [2] was 184 nM.

Consider `CCCOc1ccc2c(c1)[C@@H](c1ccc(OC)cc1OCCO)[C@H](C(=O)O)[C@H]2c1ccc2c(c1)OCO2` [Enrasentan], for which, in data set [1], the IC50 came out at 0.1 nM and the ETB/ETA selectivity ratio is on record as 1110. Moreover, in data set [2], the IC50 was 111 nM.

In data set [3], `Cc1ncc2n1-c1ccc(Cl)cc1C(c1ccccc1F)=NC2` [midazolam] yielded an AUC(0-t) of 15.2 ng·h/mL and a Cmax of 7.65 ng/mL.

Source of the values: patent publication US20020115661A1, “Method for treating chronic obstructive pulmonary disease” (priority 2000, published 2002).
